According to patent US10913787B2, “Method of identifying musk compounds” (Firmenich SA, priority 2015, dated 2021):

How the values were obtained:
mouse Olfr96 = test: cell-based cAMP HTRF dose-response assay, tagged mouse Olfr96 in HEK293T cells
Description: (§1) In a further embodiment, to complete the deorphanization process, the candidate OR genes are further expressed in vitro for confirmation of activity against the compounds used to isolate the olfactory sensory neurons and other structurally-related compounds of interest. The mouse receptors identified from isolated olfactory neurons that respond to both Musk compounds are modified at their N-terminus with short polypeptide sequences (e.g., Flag (SEQ ID NO: 6), Rho (SEQ ID NO: 8; 20 first amino acids of the bovine rhodopsin receptor), or Lucy (SEQ ID NO: 10) tags), transiently expressed in HEK 293T cells, and stimulated separately with Musk compounds to confirm their identity as bona fide Musk compound receptors. Co-expression of the human G alpha subunit Gαolf in this cell-based assay activates the Gs transduction pathway that leads to an internal cAMP increase upon binding to the appropriate ligand. Alternatively, co-expression of the human G alpha subunit Gals in the cell based assay activates the Gq transduction pathway that leads to an internal Ca^2+ increase upon binding to the appropriate ligand. The above process and the results obtained so far serve to validate the process for rapid and reliable identification of mammalian odorant receptors for Musk compounds.
Functional dose-response experiments were performed to evaluate the level of functional activity of the modified cell line. Using a cell-based assay, mouse Olfr96 was tested in an HEK293T cell line wherein the endogenous RTP1 gene has been activated and the odorant receptor chaperone was expressed. Flag-Rho-tagged receptor genes were co-transfected with the olfactory canonical G-protein Goff gene and were exposed to increasing concentrations of the Musk odorants Tonalide, Vulcanolide, and Muscone. Odorant-induced activity was detected by measuring the cAMP increase in the cytosol using an HTRF based kit (CisBio, cAMP dynamic 2 kit, 62AM4PEJ). […] In an additional repeat experiment using the same conditions, mouse Olfr96 and corresponding human ortholog OR11A1 were tested side by side in duplicate with a musk diversity set for specificity assessment.

human ortholog OR11A1 = biological target: T1, human ortholog OR11A1 (Homo sapiens, UniProt Q9GZK7); test: cell-based cAMP HTRF dose-response assay, tagged human OR11A1 in HEK293T cells; settings: Lucy-Flag-Rho-tagged receptor, in duplicate, musk diversity set, FIG. 3
T1 construct: expressed in transfected cells
T1 sequence (Q9GZK7 1-315): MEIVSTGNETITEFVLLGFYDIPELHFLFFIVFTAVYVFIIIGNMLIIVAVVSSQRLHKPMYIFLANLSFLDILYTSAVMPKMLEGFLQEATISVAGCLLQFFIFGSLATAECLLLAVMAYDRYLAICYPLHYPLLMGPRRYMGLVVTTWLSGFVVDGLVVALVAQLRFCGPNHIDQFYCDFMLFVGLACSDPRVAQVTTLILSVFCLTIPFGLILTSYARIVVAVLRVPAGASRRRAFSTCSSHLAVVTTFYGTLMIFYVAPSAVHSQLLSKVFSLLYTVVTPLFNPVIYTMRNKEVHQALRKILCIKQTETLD
Description: as §1, with “The above process and the results obtained so far serve to validate the process for rapid and reliable identification of mammalian odorant receptors for Musk compounds.” left out
Functional dose-response experiments were performed to evaluate the level of functional activity of the modified cell line. […] Odorant-induced activity was detected by measuring the cAMP increase in the cytosol using an HTRF based kit (CisBio, cAMP dynamic 2 kit, 62AM4PEJ). […]

[1] = Flag-Rho-tagged receptor, HEK293T with activated RTP1, increasing concentrations of odorant, FIG. 2
[2] = repeat experiment, Lucy-Flag-Rho-tagged receptor, HEK293T, in duplicate, musk diversity set, FIG. 3

Compound	dose-dependent increase of Olfr96 receptor activity (cAMP increase in the cytosol) (mouse Olfr96; [1])	dose-dependent increase of Olfr96 receptor activity (cAMP increase in the cytosol) (mouse Olfr96; [2])	dose-dependent increase of OR11A1 receptor activity (cAMP increase in the cytosol) (human ortholog OR11A1)
CC(=O)c1cc2c(cc1C)C(C)(C)C(C)CC2(C)C (stereo not shown) [Tonalide]	dose-dependent increase	dose-dependent increase	–
CC1C(C)(C)C2=C(C(=O)CCC2)C1(C)C (stereo not shown) [Cashmeran]	–	dose-dependent increase	–
Cc1cc2c(cc1C=O)C(C)(C)[C@@H](C)[C@H](C)C2(C)C [Vulcanolide]	dose-dependent increase	dose-dependent increase	dose-dependent increase
Cc1c([N+](=O)[O-])c(C)c([N+](=O)[O-])c(C(C)(C)C)c1[N+](=O)[O-] [Musk X]	–	dose-dependent increase	–
